14 compounds from PubChem BioAssay AID328 (DTP/NCI, 2004) can be followed below.

SMILES strings stand for the structures. Where “and” joins values, the source holds several entries; their conditions need not be identical. Identical values can stand only once. Toxic doses and inconclusive results are not listed.

For this experiment, the system named is BDF1 mice, P388 leukemia ip, median survival T/C. Put plainly: NCI In Vivo Anticancer Drug Screen. Data for tumor model P388 Leukemia (intraperitoneal) in B6D2F1 (BDF1) mice. The conditions noted are these: endpoint: median survival time, higher = longer survival. The essentials: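 Vehicle-dosed animals serve as the reference; survival of compound-dosed, tumour-implanted mice is divided by it.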

Where [1] appears, read: dose: 25.0 mg/kg/injection, schedule: Q04DX003 (ip), vehicle: saline.
Where [2] appears, read: dose: 50.0 mg/kg/injection, schedule: Q04DX003 (ip), vehicle: saline.
Setting [3] is: dose: 100.0 mg/kg/injection, schedule: Q04DX003 (ip), vehicle: saline.
Where [4] appears, read: dose: 50.0 mg/kg/injection, schedule: Q01DX009 (ip), vehicle: Klucel (hydroxypropylcellulose) (HPC).
[5] abbreviates: dose: 100.0 mg/kg/injection, schedule: Q04DX003 (ip), vehicle: Klucel (hydroxypropylcellulose) (HPC).
Setting [6] is: dose: 200.0 mg/kg/injection, schedule: Q04DX003 (ip), vehicle: Klucel (hydroxypropylcellulose) (HPC).
The mark [7] stands for this setting: dose: 400.0 mg/kg/injection, schedule: Q04DX003 (ip), vehicle: Klucel (hydroxypropylcellulose) (HPC).
The mark [8] stands for this setting: dose: 25.0 mg/kg/injection, schedule: Q01DX009 (ip), vehicle: saline.
[9] abbreviates: dose: 50.0 mg/kg/injection, schedule: Q01DX009 (ip), vehicle: saline with Tween-80.
[10] abbreviates: dose: 100.0 mg/kg/injection, schedule: Q01DX009 (ip), vehicle: saline with Tween-80.
Setting [11] is: dose: 200.0 mg/kg/injection, schedule: Q01DX009 (ip), vehicle: saline with Tween-80.

For the compound `Nc1ncnc2c1ncn2C1OC(CO)C(O)C1O` (stereo not given), the T/C was 113 % of control (dose: 1.56 mg/kg/injection, schedule: Q#A X018 (ip), vehicle: saline with Tween-80); 100 % of control (dose: 3.13 mg/kg/injection, schedule: Q#A X018 (ip), vehicle: saline with Tween-80); 100 % of control (dose: 6.25 mg/kg/injection, schedule: Q#A X018 (ip), vehicle: saline with Tween-80); 105 % of control (dose: 10.0 mg/kg/injection, schedule: Q01DX009 (ip), vehicle: saline with Tween-80); 109 % of control (dose: 12.5 mg/kg/injection, schedule: Q#A X018 (ip), vehicle: saline with Tween-80); 120 % of control (dose: 14.0 mg/kg/injection, schedule: Q01DX009 (ip), vehicle: saline). Besides, the T/C (dose: 20.0 mg/kg/injection, schedule: Q01DX009 (ip), vehicle: saline with Tween-80) was 91 % of control and 100 % of control; the T/C under setting [1] was 109 % of control; the T/C (dose: 40.0 mg/kg/injection, schedule: Q01DX009 (ip), vehicle: saline with Tween-80) was 114 % of control and 122 % of control; the T/C under setting [2] was 113 % of control; the T/C (dose: 78.0 mg/kg/injection, schedule: Q01DX009 (ip), vehicle: saline with Tween-80) was 178 % of control; the T/C (dose: 78.6 mg/kg/injection, schedule: Q01DX005 (ip), vehicle: water) is 108 % of control. Moreover, the T/C is 102 % of control (dose: 78.6 mg/kg/injection, schedule: Q01DX009 (ip), vehicle: water); 109 % of control under setting [3]; 184 % of control (dose: 110.0 mg/kg/injection, schedule: Q03HX024 (ip), vehicle: saline with Tween-80); 114 % of control (dose: 118.0 mg/kg/injection, schedule: Q01DX005 (ip), vehicle: water); 165 % of control (dose: 118.0 mg/kg/injection, schedule: Q01DX009 (ip), vehicle: saline with Tween-80); 105 % of control (dose: 118.0 mg/kg/injection, schedule: Q01DX009 (ip), vehicle: water). For the same compound, the T/C reads like this: (dose: 160.0 mg/kg/injection, schedule: Q01DX009 (ip), vehicle: saline with Tween-80) 151 % of control and 185 % of control; (dose: 160.0 mg/kg/injection, schedule: Q03HX024 (ip), vehicle: saline with Tween-80) 206 % of control; (dose: 177.0 mg/kg/injection, schedule: Q01DX005 (ip), vehicle: water) 111 % of control; (dose: 177.0 mg/kg/injection, schedule: Q01DX009 (ip), vehicle: saline with Tween-80) 156 % of control and 169 % of control; (dose: 177.0 mg/kg/injection, schedule: Q01DX009 (ip), vehicle: water) 112 % of control; (dose: 240.0 mg/kg/injection, schedule: Q03HX024 (ip), vehicle: saline with Tween-80) 228 % of control. In addition, the T/C is, setting by setting: (dose: 266.0 mg/kg/injection, schedule: Q01DX005 (ip), vehicle: water) 117 % of control; (dose: 266.0 mg/kg/injection, schedule: Q01DX009 (ip), vehicle: saline with Tween-80) 156 % of control and 166 % of control; (dose: 266.0 mg/kg/injection, schedule: Q01DX009 (ip), vehicle: water) 117 % of control; (dose: 320.0 mg/kg/injection, schedule: Q01DX009 (ip), vehicle: saline with Tween-80) 185 % of control; (dose: 400.0 mg/kg/injection, schedule: Q01DX005 (ip), vehicle: water) 117 % of control; (dose: 400.0 mg/kg/injection, schedule: Q01DX009 (ip), vehicle: water) 114 % of control. In addition, the T/C (dose: 900.0 mg/kg/injection, schedule: Q01DX009 (ip), vehicle: saline with Tween-80) was 155 % of control and 156 % of control.
As to `CC1C[N+](C)(C)NC1=O` (stereo not given), the T/C (dose: 50.0 mg/kg/injection, schedule: Q01DX001 (ip), vehicle: saline) is 100 % of control and the T/C (dose: 200.0 mg/kg/injection, schedule: Q01DX001 (ip), vehicle: saline) is 100 % of control.
On to `C[C@]12CC[C@@H]3c4ccc(O)cc4CC[C@H]3[C@@H]1C[C@@H](O)[C@@H]2O`, for which the T/C reads like this: (dose: 12.5 mg/kg/injection, schedule: Q01DX009 (ip), vehicle: Klucel (hydroxypropylcellulose) (HPC)) 90 % of control; (dose: 25.0 mg/kg/injection, schedule: Q01DX009 (ip), vehicle: Klucel (hydroxypropylcellulose) (HPC)) 100 % of control; under setting [4], 109 % of control; under setting [5], 104 % of control; under setting [6], 104 % of control; under setting [7], 100 % of control.
On to `O=C1CN(Cc2ccccc2)CC(=O)N2Cc3ccccc3CN12`, for which the T/C runs as follows: (dose: 100.0 mg/kg/injection, schedule: Q01DX005 (ip), vehicle: saline with Tween-80) 101 % of control; (dose: 200.0 mg/kg/injection, schedule: Q01DX005 (ip), vehicle: saline with Tween-80) 92 % of control.
In the case of `c1ccc2c(c1)Sc1ccccc1N2CCCN1CCCC1`, the T/C was 104 % of control (dose: 6.25 mg/kg/injection, schedule: Q01DX009 (ip), vehicle: saline); 104 % of control (dose: 12.5 mg/kg/injection, schedule: Q01DX009 (ip), vehicle: saline); 122 % of control under setting [8].
For the compound `O=C(O)c1oc2ccccc2c1CO`, the T/C runs as follows: under setting [9], 99 % of control; under setting [10], 101 % of control; under setting [11], 105 % of control.
On to `O/N=C(/C(=N/O)c1ccccc1)c1ccccc1.O/N=C(/C(=N/O)c1ccccc1)c1ccccc1.[Cl][Rh][Cl]`, for which the T/C by setting is: under setting [8], 119 % of control; (dose: 50.0 mg/kg/injection, schedule: Q01DX009 (ip), vehicle: saline) 117 % of control; (dose: 100.0 mg/kg/injection, schedule: Q01DX009 (ip), vehicle: saline) 94 % of control; (dose: 200.0 mg/kg/injection, schedule: Q01DX009 (ip), vehicle: saline) 103 % of control; (dose: 400.0 mg/kg/injection, schedule: Q01DX009 (ip), vehicle: saline) 95 % of control.
For the compound `CSc1nc(Cl)cc2c1ncn2C1OC(CO)C(O)C1O` (stereo not given), the T/C was 105 % of control (dose: 12.5 mg/kg/injection, schedule: Q04DX003 (ip), vehicle: saline); 102 % of control under setting [1]; 102 % of control under setting [2]; 112 % of control under setting [3]; 110 % of control (dose: 200.0 mg/kg/injection, schedule: Q04DX003 (ip), vehicle: saline); 100 % of control (dose: 400.0 mg/kg/injection, schedule: Q04DX003 (ip), vehicle: saline).
`O=C1c2ccccc2C(O)(c2ccccc2)c2c(Cl)cccc21` (stereo not given): the T/C is 104 % of control under setting [9], 111 % of control under setting [10] and 95 % of control under setting [11].
As to `CCOC(=O)CN1C(=O)S/C(=C/c2ccc([N+](=O)[O-])o2)C1=O`, the T/C runs as follows: (dose: 100.0 mg/kg/injection, schedule: Q04DX002 (ip), vehicle: saline with Tween-80) 94 % of control; (dose: 200.0 mg/kg/injection, schedule: Q04DX002 (ip), vehicle: saline with Tween-80) 105 % of control.
As to `COc1ccc(/C=C/C(=O)c2ccccc2)cc1`, the T/C is 97 % of control under setting [10]; 104 % of control (dose: 100.0 mg/kg/injection, schedule: Q04DX003 (ip), vehicle: saline with Tween-80); 98 % of control under setting [11]; 104 % of control (dose: 200.0 mg/kg/injection, schedule: Q04DX003 (ip), vehicle: saline with Tween-80); 98 % of control (dose: 400.0 mg/kg/injection, schedule: Q01DX009 (ip), vehicle: saline with Tween-80); 104 % of control (dose: 400.0 mg/kg/injection, schedule: Q04DX003 (ip), vehicle: saline with Tween-80).
For the compound `Oc1ccc(C2CCCCC2)c(O)c1`, the T/C is, setting by setting: under setting [4], 100 % of control; (dose: 50.0 mg/kg/injection, schedule: Q04DX003 (ip), vehicle: Klucel (hydroxypropylcellulose) (HPC)) 91 % of control; (dose: 100.0 mg/kg/injection, schedule: Q01DX009 (ip), vehicle: Klucel (hydroxypropylcellulose) (HPC)) 104 % of control; (dose: 200.0 mg/kg/injection, schedule: Q01DX009 (ip), vehicle: Klucel (hydroxypropylcellulose) (HPC)) 100 % of control; under setting [6], 91 % of control.
Consider `O=C(/C(=N/Nc1ccccc1)c1ccccc1)c1ccccc1`, for which the T/C is 104 % of control under setting [5], 100 % of control under setting [6] and 113 % of control under setting [7].
As to `O=C(NCCBr)Nc1cccc2c1Cc1ccccc1-2`, the T/C was 100 % of control under setting [5], 100 % of control under setting [6] and 95 % of control under setting [7].
